PMC9841532, “Exploring the Effect of Halogenation in a Series of Potent and Selective A2B Adenosine Receptor Antagonists” (Journal of Medicinal Chemistry, 2022)
Read-outs that look alike come from different tables or passages of the source.

Assays:
hA1AR [1] = molecular target: T1, hA1AR (Homo sapiens, UniProt P30542); assay: Radioligand binding competition, [3H]DPCPX, membranes from CHO-A1 cells; conditions: 1 μM, [3H]DPCPX, human CHO cells, n = 2
T1 sequence (P30542 1-326): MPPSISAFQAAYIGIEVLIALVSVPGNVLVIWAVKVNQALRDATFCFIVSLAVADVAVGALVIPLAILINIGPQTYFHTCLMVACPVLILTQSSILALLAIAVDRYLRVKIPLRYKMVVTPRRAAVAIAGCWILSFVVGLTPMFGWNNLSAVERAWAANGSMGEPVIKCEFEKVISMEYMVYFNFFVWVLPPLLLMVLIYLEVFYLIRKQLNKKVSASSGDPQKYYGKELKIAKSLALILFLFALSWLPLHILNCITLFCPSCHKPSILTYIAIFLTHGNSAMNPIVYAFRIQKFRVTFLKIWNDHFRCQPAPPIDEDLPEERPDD
Summary of the method: (§1)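 Racemates, plus selected enantiomers after chiral resolution, were tested at 25 °C, with a 60 min incubation for one subtype and 30 min for others. Non-specific binding was defined with 10 μM or 100 μM R-PIA. Bound radioactivity was counted after washing and filtration.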

hA2AAR = molecular target: T2, hA2AAR (Homo sapiens, UniProt P29274); assay: Radioligand binding competition, [3H]ZM241385, membranes from HeLa-A2A cells; conditions: for % at 1 μM hA2A (percentage displacement of specific binding): [3H]ZM241385, human HeLa cells, n = 2
T2 construct: expressed in transfected cells; host or cells: HeLa (HeLa-A2A) cell membranes
T2 sequence (P29274 whole entry): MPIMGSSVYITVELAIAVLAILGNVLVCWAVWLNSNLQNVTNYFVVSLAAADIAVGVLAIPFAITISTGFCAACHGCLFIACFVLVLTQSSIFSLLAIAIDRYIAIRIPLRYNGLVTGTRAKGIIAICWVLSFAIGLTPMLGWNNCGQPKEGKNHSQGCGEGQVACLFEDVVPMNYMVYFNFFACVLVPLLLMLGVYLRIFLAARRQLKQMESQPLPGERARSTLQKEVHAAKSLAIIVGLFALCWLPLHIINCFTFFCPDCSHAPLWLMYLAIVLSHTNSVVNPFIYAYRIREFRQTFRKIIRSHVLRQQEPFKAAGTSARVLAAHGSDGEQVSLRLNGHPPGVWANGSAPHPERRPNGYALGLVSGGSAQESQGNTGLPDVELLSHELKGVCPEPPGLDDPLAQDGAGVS
Summary of the method: as §1

hA2BAR = molecular target: T3, hA2BAR (Homo sapiens, UniProt P29275); assay: Radioligand binding competition, [3H]DPCPX, membranes from HEK-293-A2B cells; design: Exp. dG: unit not given here; conditions: for % at 1 μM hA2B (percentage displacement of specific binding): [3H]DPCPX, human HEK-293 cells, n = 2; for Ki: read-out: Ki hA2B
T3 construct: host or cells: HEK-293 (HEK-293-A2B) cell membranes
T3 sequence (P29275 1-332): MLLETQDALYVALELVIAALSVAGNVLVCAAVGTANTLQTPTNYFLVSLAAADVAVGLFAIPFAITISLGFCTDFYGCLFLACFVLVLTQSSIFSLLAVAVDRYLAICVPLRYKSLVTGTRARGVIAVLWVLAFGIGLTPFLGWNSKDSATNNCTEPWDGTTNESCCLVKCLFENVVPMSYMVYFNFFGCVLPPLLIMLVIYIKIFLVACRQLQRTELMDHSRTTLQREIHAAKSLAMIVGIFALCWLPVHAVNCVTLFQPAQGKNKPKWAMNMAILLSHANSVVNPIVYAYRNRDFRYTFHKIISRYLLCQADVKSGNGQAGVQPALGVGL
Summary of the method: as §1

hA3AR [2] = molecular target: T4, hA3AR (Homo sapiens, UniProt P0DMS8); assay: Radioligand binding competition, [3H]NECA, membranes from HeLa-A3 cells; conditions: 1 μM, [3H]NECA, human HeLa cells, n = 2
T4 construct: expressed in transfected cells; host or cells: HeLa (HeLa-A3) cell membranes
T4 sequence (P0DMS8 1-318): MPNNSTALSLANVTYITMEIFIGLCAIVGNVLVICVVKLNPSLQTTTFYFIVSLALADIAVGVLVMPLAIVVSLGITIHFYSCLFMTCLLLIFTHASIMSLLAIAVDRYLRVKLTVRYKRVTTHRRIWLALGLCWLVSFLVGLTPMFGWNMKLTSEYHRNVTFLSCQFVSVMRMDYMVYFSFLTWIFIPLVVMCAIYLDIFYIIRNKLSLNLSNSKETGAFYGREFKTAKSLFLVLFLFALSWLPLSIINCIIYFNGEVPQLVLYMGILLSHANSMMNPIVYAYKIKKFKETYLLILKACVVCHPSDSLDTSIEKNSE
Summary of the method: as §1

A2B = conditions: cited from earlier work
hA1AR [3] = molecular target: T1, hA1AR; conditions: prototype series, [3H]DPCPX, human CHO cells ref 30, 31; cited from earlier work
hA3AR [4] = molecular target: T4, hA3AR; conditions: prototype series, [3H]NECA, human HeLa cells ref 30, 31; cited from earlier work
[5] = Human microsomal stability; assay type: in vitro ADME; conditions: human, human microsomes, pH 7.4; read-out: microsomal stability t1/2
Description: The human microsomal stability of selected compounds was evaluated by following a previously described method.[31] The human microsomes employed were purchased from Tebu-Xenotech. The compound was incubated with the microsomes at 37 °C in a 50 mM phosphate buffer (pH = 7.4) containing 3 mM MgCl2, 1 mM NADP, 10 mM glucose-6-phosphate, and 1 U/mL glucose-6-phosphate-dehydrogenase. Samples (75 μL) were taken from each well at 0, 10, 20, 40, and 60 min and transferred to a plate containing 4 °C 75 μL acetonitrile and 30 μL of 0.5% formic acid in water was added for improving the chromatographic conditions. The plate was centrifuged (46,000 g, 30 min), and supernatants were taken and analyzed in a UPLC-MS/MS (Xevo TQD, Waters) by employing a BEH C18 column and an isocratic gradient of 0.1% formic acid in water:0.1% formic acid acetonitrile (60:40). The metabolic stability of the compounds was calculated from the logarithm of the remaining compounds at each of the time point studied.

[6] = displacement of specific [3H]DPCPX binding in human HEK-293 cells, n = 3
[7] = Figure 1, representative A2B antagonists ref 28-32, read-out: Ki

Molecule	% at 1 μM hA1 (percentage displacement of specific binding) (hA1AR [1]) [%]	% at 1 μM hA2A (percentage displacement of specific binding) (hA2AAR) [%]	% at 1 μM hA3 (percentage displacement of specific binding) (hA3AR [2]) [%]	Ki (A2B; [7]) [nM]	further results
CC1=C(C(=O)OC(C)C)[C@H](c2ccco2)n2c(nc3cc(Cl)ccc32)N1 [(R)-16j]	7	37	5		% at 1 μM hA2B (percentage displacement of specific binding) (hA2BAR): 51%
CC1=C(C(=O)OC(C)C)[C@@H](c2ccoc2)n2c(nc3cc(Cl)ccc32)N1 [(R)-16l]	37		24		Ki (hA2AAR; displacement of specific [3H]ZM241385 binding in human HeLa cells, n = 3, read-out: Ki hA2A): 96.3 ± 6 nM; Ki (hA2BAR; [6]): 2.6 ± 0.3 nM
CC1=C(C(=O)OC(C)C)[C@H](c2ccco2)n2c(nc3cc(Br)ccc32)N1 [(R)-16r]	12	7	2		% at 1 μM hA2B (percentage displacement of specific binding) (hA2BAR): 35%
CCOC(=O)C1=C(C)Nc2nc3cc(Cl)ccc3n2[C@H]1c1cocn1 [(R)-18c]	9	32	15		% at 1 μM hA2B (percentage displacement of specific binding) (hA2BAR): 26%
CC1=C(C(=O)OC(C)C)[C@@H](c2ccco2)n2c(nc3cc(Cl)ccc32)N1 [(S)-16j]	48	19	6		Ki (hA2BAR; [6]): 2.04 ± 0.2 nM
CC1=C(C(=O)OC(C)C)[C@H](c2ccoc2)n2c(nc3cc(Cl)ccc32)N1 [(S)-16l]	24	25	19		% at 1 μM hA2B (percentage displacement of specific binding) (hA2BAR): 53%
CCOC(=O)C1=C(C)Nc2nc3cc(Br)ccc3n2[C@H]1c1ccoc1 [(S)-16s]	11	16	10		% at 1 μM hA2B (percentage displacement of specific binding) (hA2BAR): 34%
CCOC(=O)C1=C(C)Nc2nc3cc(Cl)ccc3n2[C@@H]1c1cocn1 [(S)-18c]	22	17	6		Ki (hA2BAR; [6]): 3.39 ± 0.2 nM
CC1=C(C(=O)OC(C)C)[C@@H](c2ccco2)n2c(nc3ccccc32)N1 [(S)-ISAM-140]	2	12	4		Ki hA2B (hA2BAR; [6]): sub-nanomolar; Ki (hA2BAR; [6]): 0.89 ± 0.2 nM
CCCn1c(=O)c2[nH]c(-c3cnn(Cc4cccc(C(F)(F)F)c4)c3)nc2n(CCC)c1=O [CVT-7124]				6	
CC1=C(C(=O)OC(C)C)C(c2ccoc2)n2c(nc3ccccc32)N1 (stereo not drawn) [IV]					Exp. dG (hA2BAR; experimental binding free energy, Supplementary Table S3, unit not given (errors in kcal/mol)): -10.83; % at 1 μM hA1 (percentage displacement of specific binding) (hA1AR [3]): 12%; % at 1 μM hA3 (percentage displacement of specific binding) (hA3AR [4]): 2%
CCOC(=O)C1=C(C)Nc2nc3ccccc3n2C1c1cocn1 (stereo not drawn) [IX]				8.1	
c1cncc(Nc2ncc(-c3ccncn3)c(-c3ccco3)n2)c1 [LAS38096, 4′-(2-Furyl)-N-Pyridin-3-Yl-4,5‘-Bipyrimidin-2‘-Amine]				17	
CCCn1c(=O)[nH]c2nc(-c3ccc(S(=O)(=O)N4CCN(c5ccc(Br)cc5)CC4)cc3)[nH]c2c1=O [PSB-1901]				0.083	
CC1=C(C(=O)OC(C)C)C(c2ccco2)NC(=S)N1 (stereo not drawn) [SYAF030]				10.2	
O=c1c(-c2ccccc2)nnc2n(-c3ccccc3)c3ccc(Cl)cc3n12 [compound 5]				1.4	
C[C@]12CC[C@H]3[C@@H](CCC4=CC(=O)CC[C@@]43C)[C@@H]1CC[C@@H]2O [testosterone, reference compound]					half-life at 1 h [5]: 16.1 min
PSB-603					Ki (A2B; Table 8 ref 28, read-out: hA2B Ki): 0.553 nM
